{"source": "patent US9051544B2", "about": "“Method of enhancing cell growth using alkyl-amine-n-oxide (AANOx)” (BAXTER INTERNATIONAL INC., priority 2008, dated 2015)", "key": {"[1]": {"system": "CHO cells expressing FVIII", "type": "cell-based, Chinese hamster", "procedure": "In order to determine the effect of DDAO levels in cell growth, experiments were undertaken using CHO cells expressing FVIII with varying levels of DDAO equivalent to the contaminating amount in certain lots of commercial soy hydrolysate.\nCells from a bioreactor containing CHO cells in BAV serum free media, DMEM/HAM's F12 medium (11.76 g) supplemented with soya-peptone (4 g), ethanolamine (1.53 mg), L-glutamine (0.6 g), NaHCO3 (2.0 g) and SYNPERONIC (PLURONIC®) F68 (0.25 g) (see International Patent Publ. WO/2006/045438) were cultured with 4 g/L soy peptone in 60 mL Roux flasks. Roux flasks provide a static, unmoving environment for the cells to grow."}, "[2]": {"system": "Bacillus bacteria", "details": "Bacillus bacteria in culture; Brycki et al.; cited from earlier work"}, "[3]": {"system": "CHO cells", "test": "DDAO spiked into media at 0-50 ppm or equivalent ppb, in duplicate by serial dilution; cell growth and viability", "type": "cell-based, Chinese hamster", "text": "In separate experiments, DDAO was spiked into media at differing concentrations between 0-50 ppm or equivalent ppb in duplicate using serial dilution of high DDAO containing-media to reduce error (FIGS. 3 and 4)."}}}
{"molecule": "CCCCCCCCCCCC[N+](C)(C)[O-]", "note": "[DDAO, dodecyldimethylamine oxide]", "values": [{"measurement": "DDAO level above which toxicity is shown", "setting": "[1]; Chinese hamster", "result": "above 21.5 ppm"}, {"measurement": "DDAO level up to which there is a positive effect on cell growth", "setting": "[1]; ppm equivalent in the soy hydrolysate, Roux flasks", "result": "up to 20 ppm"}, {"measurement": "DDAO level above which the process of denitrification is slowed", "setting": "[2]", "result": "above 75 parts per million"}, {"measurement": "DDAO level up to which there is a beneficial effect on cell growth", "setting": "[3]; FIG. 3", "result": "5-10 ppb"}, {"measurement": "DDAO level up to which there is a beneficial effect on cell growth", "setting": "[3]; FIG. 4, duplicate samples", "result": "6-10 ppm"}]}
